Entries after “also recorded” stand apart in the source; their conditions may differ.

We go through three compounds from patent US20020150901A1, “Novel nucleic acids, polypeptides, methods of making, and uses thereof” (priority 2000, published 2002).

Format in all cases: cell-based
The test system of experiment [1] is "dummy" transfected control COS-7 cells. Put plainly: Aequorin bioluminescence assay, "dummy" transfected control COS-7 cells (no leukotriene receptor). To be noted: 200 nM agonist, COS-7 cells with "dummy" insert and aequorin. The source says:
(§1) The photoprotein aequorin, originally isolated from luminescent jellyfish, has proven to be a highly sensitive and quantitative bioluminescence Ca^2+ indicator in cells.
(§2) The aequorin complex contains a 22,000 MW apoaequorin protein, oxygen and the luminophore, coelenterazine. When three Ca^2+ ions bind to this complex, coelenterazine is oxidized to coelenteramide, releasing carbon dioxide and light (emission maximum ˜466 nm). Aequorin has a broad detection range, allowing the measurement of Ca^2+ concentrations from ˜0.1 μM to >100 μM.
(§3) The HUMAN CysLT2 GPCR and apoaequorin cDNAs were transiently co-expressed in cells (the aequorin is targeted for expression in mitochondria). Once cells have been transfected with these expression vectors, they are incubated in a medium containing cell-permeant coelenterazine which reconstitutes the aequorin complex. After formation of the active aequorin complex, intracellular Ca^2+ release caused by activation of the HUMAN CysLT2 GPCR is measured by assaying cells for light production using a luminometer.
(§4) COS-7 cells were trypsinized and plated at 1.5×10^5 cells/well in 6 well tissue culture plates. The cells were grown overnight at 37° C. in DMEM supplemented with 10% FBS, 1% glutamine and 1% non essential amino acids. […]

The next experiment deals with T1, human CysLT1 receptor (Homo sapiens, UniProt Q9Y271).
T1 construct: expressed in transfected cells; host or cells: COS-7
T1 sequence (Q9Y271 1-337): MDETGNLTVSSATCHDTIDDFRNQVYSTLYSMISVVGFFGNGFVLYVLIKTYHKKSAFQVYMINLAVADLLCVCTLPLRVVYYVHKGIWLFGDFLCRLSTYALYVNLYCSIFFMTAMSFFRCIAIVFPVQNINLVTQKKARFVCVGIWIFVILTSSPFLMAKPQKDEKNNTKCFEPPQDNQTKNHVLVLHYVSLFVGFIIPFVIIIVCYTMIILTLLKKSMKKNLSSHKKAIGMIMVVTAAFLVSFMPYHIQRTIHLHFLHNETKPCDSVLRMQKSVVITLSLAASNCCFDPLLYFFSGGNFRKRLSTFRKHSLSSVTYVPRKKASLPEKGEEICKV
Description: Aequorin bioluminescence assay of intracellular calcium release, COS-7 cells expressing human CysLT1. To be noted: 200 nM antagonist injected 10 seconds before 200 nM LTC4 or LTD4.

The next experiment has as its target T2, HUMAN CysLT2 GPCR (Homo sapiens, UniProt Q9NS75).
T2 construct: expressed in transfected cells; host or cells: COS-7
T2 sequence (Q9NS75 1-346): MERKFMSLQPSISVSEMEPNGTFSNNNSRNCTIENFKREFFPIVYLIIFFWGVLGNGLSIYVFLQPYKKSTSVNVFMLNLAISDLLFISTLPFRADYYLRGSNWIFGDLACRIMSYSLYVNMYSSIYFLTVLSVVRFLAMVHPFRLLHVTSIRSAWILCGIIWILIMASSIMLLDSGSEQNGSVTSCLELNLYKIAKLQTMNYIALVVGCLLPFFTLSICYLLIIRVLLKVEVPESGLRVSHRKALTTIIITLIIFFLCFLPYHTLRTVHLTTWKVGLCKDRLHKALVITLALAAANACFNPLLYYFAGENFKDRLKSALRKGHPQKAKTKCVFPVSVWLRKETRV
Description: Aequorin bioluminescence assay of intracellular calcium release, COS-7 cells expressing HUMAN CysLT2 GPCR. As to conditions: 200 nM antagonist injected 10 seconds before 200 nM LTC4 or LTD4.
From the text: as §1, §2, §3, §4

For the compound `CCCCC/C=C\C\C=C/C=C/C=C/[C@@H](SC[C@H](N)C(=O)NCC(=O)O)[C@@H](O)CCCC(=O)O` [LTD4], the “aequorin activation by agonist” value in experiment [1] is recorded as “not on the “dummy” transfected control cells”.

For `CN(C)C(=O)CCSC(SCCC(=O)O)c1cccc(/C=C/c2ccc3ccc(Cl)cc3n2)c1` (stereo not shown) [MK571], the results for the “block of LTC4 or LTD4 induced receptor activation by antagonist” value at human CysLT1 receptor and at HUMAN CysLT2 GPCR were “effectively blocked” and “neither antagonist significantly inhibited; also recorded: failed to block; also recorded: resistance to inhibition”, respectively.

For `CCCCC/C=C\C\C=C/C=C/C=C/[C@@H](SC[C@H](NC(=O)CC[C@H](N)C(=O)O)C(=O)NCC(=O)O)[C@@H](O)CCCC(=O)O` [LTC4], in experiment [1], the “aequorin activation by agonist” value is reported as “not on the “dummy” transfected control cells”.
